Series [1] concerns the target T1, Seed linoleate 13S-lipoxygenase-1 (Glycine max) (UniProt P08170).
T1 sequence (whole entry): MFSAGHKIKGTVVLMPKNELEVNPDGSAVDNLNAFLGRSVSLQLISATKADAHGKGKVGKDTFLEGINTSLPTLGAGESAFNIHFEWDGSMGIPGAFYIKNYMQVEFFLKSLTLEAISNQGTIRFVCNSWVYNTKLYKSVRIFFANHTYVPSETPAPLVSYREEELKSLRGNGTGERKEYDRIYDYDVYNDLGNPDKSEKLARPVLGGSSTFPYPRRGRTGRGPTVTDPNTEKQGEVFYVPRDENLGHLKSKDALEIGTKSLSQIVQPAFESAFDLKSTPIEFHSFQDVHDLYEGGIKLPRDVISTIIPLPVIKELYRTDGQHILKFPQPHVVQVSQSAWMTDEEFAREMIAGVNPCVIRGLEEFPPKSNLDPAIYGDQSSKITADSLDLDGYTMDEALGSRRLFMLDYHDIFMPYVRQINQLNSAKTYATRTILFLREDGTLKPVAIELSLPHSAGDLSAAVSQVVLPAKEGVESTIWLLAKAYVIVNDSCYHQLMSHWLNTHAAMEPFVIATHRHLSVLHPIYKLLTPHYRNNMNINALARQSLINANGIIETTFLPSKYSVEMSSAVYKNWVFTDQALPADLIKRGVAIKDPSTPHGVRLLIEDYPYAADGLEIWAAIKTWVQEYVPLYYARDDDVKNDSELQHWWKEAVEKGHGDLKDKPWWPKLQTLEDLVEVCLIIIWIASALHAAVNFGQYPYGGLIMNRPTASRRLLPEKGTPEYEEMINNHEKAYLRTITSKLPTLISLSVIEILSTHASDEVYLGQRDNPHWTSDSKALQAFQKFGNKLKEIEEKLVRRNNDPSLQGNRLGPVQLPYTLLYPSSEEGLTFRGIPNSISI
As to the kind of experiment: Ratio of proximal to distal region oxidation by 1-lipoxygenase isolated from soybean; Ratio of proximal and distal was 10:90.

For series [2], the target named is T1, Seed linoleate 13S-lipoxygenase-1 (Glycine max). As to the kind of experiment: Ratio of proximal to distal region oxidation by 1-lipoxygenase isolated from soybean; Ratio of proximal and distal was 25:75.
Series [3] is described as follows: Partition coefficient (logP). The format is physicochemical. The note with it: octanol/water.
Series [4] deals with T1, Seed linoleate 13S-lipoxygenase-1 (Glycine max).
Series [5] has the same target. As to the kind of experiment: Ratio of proximal to distal region oxidation by 1-lipoxygenase isolated from soybean; Ratio of proximal and distal was 99:1.
Series [6] has the same target. As to the kind of experiment: Ratio of proximal to distal region oxidation by 1-lipoxygenase isolated from soybean; Ratio of proximal and distal was 89:11.
Series [7] has the same target. As to the kind of experiment: Ratio of proximal to distal region oxidation by 1-lipoxygenase isolated from soybean; Ratio of proximal and distal was 35:65.
Series [8] shares this target. As to the kind of experiment: Ratio of proximal to distal region oxidation by 1-lipoxygenase isolated from soybean; Ratio of proximal and distal was 76:24.
Series [9] has the same target. As to the kind of experiment: Ratio of proximal to distal region oxidation by 1-lipoxygenase isolated from soybean; Ratio of proximal and distal was 1:99.
Series [10] shares this target. As to the kind of experiment: Ratio of proximal to distal region oxidation by 1-lipoxygenase isolated from soybean; Ratio of proximal and distal was 50:50.
The target is the same in series [11]. As to the kind of experiment: Ratio of proximal to distal region oxidation by 1-lipoxygenase isolated from soybean; Ratio of proximal and distal was 95:5.
Series [12] has the same target. As to the kind of experiment: Ratio of proximal to distal region oxidation by 1-lipoxygenase isolated from soybean; Ratio of proximal and distal was 87:13.

Structures are written as SMILES. Calls of active or inactive are those of the source. No cut-off for these calls is given here.

Take `CCCCCCCC/C=C\C/C=C\CCOC(=O)COCCO`: the Regiospecificity entry in series [1] was “Ratio of proximal and distal was 10:90”.
In the case of `CCCCCCCCCC/C=C\C/C=C\CCOC(=O)CCCCC(=O)O`, the Regiospecificity entry in [2] was “Ratio of proximal and distal was 25:75”.
For orientation: logP means the decadic logarithm of the partition coefficient of the neutral form, usually between octanol and water. `[N-]=[N+]=NCC/C=C/C=C/[C@@H](O)CCO`: the logP in [3] (read-out: logP) came to 6.1.
Take `CCCCC/C=C\C/C=C\CCCCCCCC(=O)O`: in series [4], the Regiospecificity result is “Active”.
For the compound `CCCCC/C=C\C/C=C\CCOC(=O)COCCO`, in series [5], the Regiospecificity result is “Ratio of proximal and distal was 99:1”.
Turning to `[N-]=[N+]=NCC/C=C\C/C=C\CCOC(=O)COCCO`, the Regiospecificity entry in series [6] was “Ratio of proximal and distal was 89:11”.
Turning to `CCCCCCCCC/C=C\C/C=C\CCOC(=O)CCCCC(=O)O`, the Regiospecificity entry in series [7] was “Ratio of proximal and distal was 35:65”.
With `CCCC/C=C\C=C\[C@@H](O)CCO`, the logP in [3] (read-out: logP) worked out at 2.82.
As to `CCCCCCC/C=C\C/C=C\CCOC(=O)CCCCC(=O)O`, in series [8], the Regiospecificity result is “Ratio of proximal and distal was 76:24”.
`CC(C)=CCC/C(C)=C/C/C=C\C/C=C\CCOC(=O)CCCCC(=O)O`: the Regiospecificity result in [9] is “Ratio of proximal and distal was 1:99”.
In the case of `CCCCCCCC/C=C\C/C=C\CCOC(=O)CCCCC(=O)O`, in [10], the Regiospecificity entry is “Ratio of proximal and distal was 50:50”.
Take `CC(C)=CCC/C(C)=C/C/C=C\C=C\[C@@H](O)CCO`: the logP in series [3] came out at 3.7.
As to `CC(C)=CCC/C(C)=C/C/C=C\C/C=C\CCOC(=O)COCCO`, the Regiospecificity entry in series [9] was “Ratio of proximal and distal was 1:99”.
`CCCCCCCC/C=C\C=C\[C@@H](O)CCO`: in series [3] (read-out: logP), the logP is 4.41.
On to `CCCCC/C=C\C/C=C\CCOC(=O)CCCCC(=O)O`, for which, in series [11], the Regiospecificity entry was “Ratio of proximal and distal was 95:5”.
With `CCCCCC/C=C\C/C=C\CCOC(=O)CCCCC(=O)O`, the Regiospecificity entry in series [12] was “Ratio of proximal and distal was 87:13”.

Source of the values: ChEMBL document CHEMBL1131694, “New minimal substrate structural requirements in the enzymatic peroxidation of alkenes with soybean lipoxygenase” (Bioorg Med Chem Lett, 1999).
